According to article PMC8261786 (Chemical Science, 2021):

What was measured:
SDS-PAGE = type: physicochemical; settings: 25 μM amyloid peptide alone; for size of monomers and oligomers (SDS-PAGE): 1–2 h; for size of large aggregates (SDS-PAGE): 24 h
[1] = test system: E. coli, P. aeruginosa, S. aureus and S. epidermidis; test: Bacterial growth assay, four strains together; type: cell-based; settings: hCT 25 μM, growth profiles
S. epidermidis = test: Bacterial growth assay, S. epidermidis; type: cell-based, Staphylococcus epidermidis (ATCC 14990); settings: amyloid peptides 25 μM
SH-SY5Y cells [2] = test: LDH membrane leakage, SH-SY5Y; type: cell-based, human; settings: 25 μM amyloid, 24 h, n = 3
SH-SY5Y cells [3] = test: MTT cell viability, SH-SY5Y; type: cell-based, human; settings: 25 μM amyloid, 24 h, n = 3
RIN-5fm cells [4] = test: MTT cell viability, RIN-5fm; type: cell-based, rat; settings: 25 μM hIAPP, 24 h, n = 3
RIN-5fm cells [5] = test: LDH membrane leakage, RIN-5fm; type: cell-based, rat; settings: 25 μM hIAPP, 24 h, n = 3

Row | SMILES | size of monomers and oligomers (SDS-PAGE) (SDS-PAGE) | size of large aggregates (SDS-PAGE) (SDS-PAGE) | growth inhibition [1] | susceptibility of S. epidermidis (S. epidermidis) | membrane leakage (LDH activity), amyloid alone (SH-SY5Y cells [2]) | cell viability, amyloid alone (SH-SY5Y cells [3]) | cell viability, amyloid alone (RIN-5fm cells [4]) | membrane leakage (LDH activity), amyloid alone (RIN-5fm cells [5])
1 | CC[C@H](C)[C@H](NC(=O)[C@H](C)NC(=O)[C@@H](NC(=O)[C@H](CCC(N)=O)NC(=O)[C@@H]1CCCN1C(=O)[C@H](Cc1ccccc1)NC(=O)[C@@H](NC(=O)[C@H](Cc1c[nH]cn1)NC(=O)[C@H](Cc1ccccc1)NC(=O)[C@H](CCCCN)NC(=O)[C@H](CC(N)=O)NC(=O)[C@H](Cc1ccccc1)NC(=O)[C@H](CC(=O)O)NC(=O)[C@H](CCC(N)=O)NC(=O)[C@@H](NC(=O)[C@H](Cc1ccc(O)cc1)NC(=O)[C@@H](NC(=O)CNC(=O)[C@H](CC(C)C)NC(=O)[C@H](CCSC)NC(=O)[C@@H]1CSSC[C@H](N)C(=O)NCC(=O)N[C@@H](CC(N)=O)C(=O)N[C@@H](CC(C)C)C(=O)N[C@@H](CO)C(=O)N[C@@H]([C@@H](C)O)C(=O)N1)[C@@H](C)O)[C@@H](C)O)[C@@H](C)O)[C@@H](C)O)C(=O)NCC(=O)N[C@H](C(=O)NCC(=O)N[C@@H](C)C(=O)N1CCC[C@H]1C(N)=O)C(C)C [hCT, human calcitonin 1–32] | 5–15 kDa | > 25 kDa | only inhibited the growth of P. aeruginosa | not susceptible | 26% | 69% |  | 
2 | CC[C@H](C)[C@H](NC(=O)[C@H](C)NC(=O)CNC(=O)[C@H](Cc1ccccc1)NC(=O)[C@H](CC(N)=O)NC(=O)[C@H](CC(N)=O)NC(=O)[C@H](CO)NC(=O)[C@H](CO)NC(=O)[C@H](Cc1c[nH]cn1)NC(=O)[C@@H](NC(=O)[C@H](CC(C)C)NC(=O)[C@H](Cc1ccccc1)NC(=O)[C@H](CC(N)=O)NC(=O)[C@H](C)NC(=O)[C@H](CC(C)C)NC(=O)[C@H](CCCNC(=N)N)NC(=O)[C@H](CCC(N)=O)NC(=O)[C@@H](NC(=O)[C@H](C)NC(=O)[C@@H]1CSSC[C@H](NC(=O)[C@@H](N)CCCCN)C(=O)N[C@@H](CC(N)=O)C(=O)N[C@@H]([C@@H](C)O)C(=O)N[C@@H](C)C(=O)N[C@@H]([C@@H](C)O)C(=O)N1)[C@@H](C)O)C(C)C)C(=O)N[C@@H](CC(C)C)C(=O)N[C@@H](CO)C(=O)N[C@@H](CO)C(=O)N[C@H](C(=O)N[C@@H](CC(N)=O)C(=O)N[C@H](C(=O)NCC(=O)N[C@@H](CO)C(=O)N[C@@H](CC(N)=O)C(=O)N[C@H](C(=O)N[C@@H](Cc1ccc(O)cc1)C(N)=O)[C@@H](C)O)C(C)C)[C@@H](C)O [hIAPP, human islet amyloid polypeptide 1–37] | 5–15 kDa | > 25 kDa |  | not susceptible |  |  | 58% | 36%
